What was measured:
Conditions in all cases: in vivo
[1] = system: Rattus norvegicus; assay: Accumulation in adrenal cortex was evaluated by distribution of radioactivity at 0.5 h after intravenous administration of oleate 1-14C radiolabeled Cholesteryl Oleate to Rats; type: ADME, organism-based
[2] = system: Rattus norvegicus; assay: Accumulation in adrenal cortex was evaluated by distribution of radioactivity at 0.5 hr after intravenous administration of 4-14C radiolabeled Cholesteryl Oleate to Rats; type: ADME, organism-based
[3] = system: Rattus norvegicus; assay: Accumulation in ovary was evaluated by distribution of radioactivity at 0.5 hr after intravenous administration of 4-14C radiolabeled Cholesteryl Oleate to Rats; type: ADME, organism-based, Female gonad
[4] = system: Rattus norvegicus; assay: Accumulation in thyroid was evaluated by distribution of radioactivity at 0.5 hr after intravenous administration of 4-14C radiolabeled Cholesteryl Oleate to Rats; type: ADME, organism-based, Thyroid gland
[5] = system: Rattus norvegicus; assay: Accumulation in ovary was evaluated by distribution of radioactivity at 0.5 hr after intravenous administration of oleate 1-14C radiolabeled Cholesteryl Oleate to Rats; type: ADME, organism-based, Female gonad
[6] = system: Rattus norvegicus; assay: Accumulation in liver was evaluated by distribution of radioactivity at 0.5 hr after intravenous administration of oleate 1-14C radiolabeled Cholesteryl Oleate to Rats; type: ADME, organism-based
[7] = system: Rattus norvegicus; assay: Accumulation in blood was evaluated by distribution of radioactivity at 0.5 hr after intravenous administration of oleate 1-14C radiolabeled Cholesteryl Oleate to Rats; type: ADME, organism-based
[8] = system: Rattus norvegicus; assay: Accumulation in liver was evaluated by distribution of radioactivity at 0.5 hr after intravenous administration of 4-14C radiolabeled Cholesteryl Oleate to Rats; type: ADME, organism-based
[9] = system: Rattus norvegicus; assay: Accumulation in thyroid was evaluated by distribution of radioactivity at 0.5 hr after intravenous administration of oleate 1-14C radiolabeled Cholesteryl Oleate to Rats; type: ADME, organism-based, Thyroid gland
[10] = system: Rattus norvegicus; assay: Accumulation in blood was evaluated by distribution of radioactivity at 0.5 hr after intravenous administration of 4-14C radiolabeled Cholesteryl Oleate to Rats; type: ADME, organism-based
[11] = system: Rattus norvegicus; assay: Accumulation in lung was evaluated by distribution of radioactivity at 0.5 hr after intravenous administration of radioiodinated cholesteryl 2,3,5-tri[125I]iodobenzoate to Rats; type: ADME, organism-based
[12] = system: Rattus norvegicus; assay: Accumulation in liver was evaluated by distribution of radioactivity at 0.5 hr after intravenous administration of radioiodinated cholesteryl 2,3,5-tri[125I]iodobenzoate to Rats; type: ADME, organism-based
[13] = system: Rattus norvegicus; assay: Accumulation in ovary was evaluated by distribution of radioactivity at 24 hr after intravenous administration of radioiodinated cholesteryl 2,3,5-tri[125I]iodobenzoate to Rats; type: ADME, organism-based, Female gonad
[14] = system: Rattus norvegicus; assay: Accumulation in spleen was evaluated by distribution of radioactivity at 0.5 hr after intravenous administration of radioiodinated cholesteryl 2,3,5-tri[125I]iodobenzoate to Rats; type: ADME, organism-based
[15] = system: Rattus norvegicus; assay: Accumulation in liver was evaluated by distribution of radioactivity at 24 hr after intravenous administration of radioiodinated cholesteryl 2,3,5-tri[125I]iodobenzoate to Rats; type: ADME, organism-based
[16] = system: Rattus norvegicus; assay: Accumulation in adrenal cortex was evaluated by distribution of radioactivity at 24 hr after intravenous administration of radioiodinated cholesteryl 2,3,5-tri[125I]iodobenzoate to Rats; type: ADME, organism-based
[17] = system: Rattus norvegicus; assay: Accumulation in lung was evaluated by distribution of radioactivity at 24 hr after intravenous administration of radioiodinated cholesteryl 2,3,5-tri[125I]iodobenzoate to Rats; type: ADME, organism-based
[18] = system: Rattus norvegicus; assay: Accumulation in adrenal cortex was evaluated by distribution of radioactivity at 0.5 hr after intravenous administration of radioiodinated cholesteryl 2,3,5-tri[125I]iodobenzoate to Rats; type: ADME, organism-based
[19] = system: Rattus norvegicus; assay: Accumulation in thyroid was evaluated by distribution of radioactivity at 24 hr after intravenous administration of radioiodinated cholesteryl 2,3,5-tri[125I]iodobenzoate to Rats; type: ADME, organism-based, Thyroid gland
[20] = system: Rattus norvegicus; assay: Accumulation in blood was evaluated by distribution of radioactivity at 24 hr after intravenous administration of radioiodinated cholesteryl 2,3,5-tri[125I]iodobenzoate to Rats; type: ADME, organism-based
[21] = system: Rattus norvegicus; assay: Accumulation in thyroid was evaluated by distribution of radioactivity at 0.5 hr after intravenous administration of radioiodinated cholesteryl 2,3,5-tri[125I]iodobenzoate to Rats; type: ADME, organism-based, Thyroid gland
[22] = system: Rattus norvegicus; assay: Accumulation in spleen was evaluated by distribution of radioactivity at 24 h after intravenous administration of radioiodinated cholesteryl 2,3,5-tri[125I]iodobenzoate to Rats; type: ADME, organism-based
[23] = system: Rattus norvegicus; assay: Accumulation in ovary was evaluated by distribution of radioactivity at 0.5 hr after intravenous administration of radioiodinated cholesteryl 2,3,5-tri[125I]iodobenzoate to Rats; type: ADME, organism-based, Female gonad
[24] = system: Rattus norvegicus; assay: Accumulation in blood was evaluated by distribution of radioactivity at 0.5 hr after intravenous administration of radioiodinated cholesteryl 2,3,5-tri[125I]iodobenzoate to Rats; type: ADME, organism-based

CCCCCCCC/C=C\CCCCCCCC(=O)OC1CCC2(C)C(=CCC3C2CCC2(C)C(C(C)CCCC(C)C)CCC32)C1 (centres undefined)
Dose/g of tissue [1]: 2.448% | Dose/g of tissue [2]: 3.85% | Dose/g of tissue [3]: 2.815% | Dose/g of tissue [4]: 0.446% | Dose/g of tissue [5]: 2.088% | Dose/g of tissue [6]: 1.236% | Dose/g of tissue [7]: 5.196% | Dose/g of tissue [8]: 1.569% | Dose/g of tissue [9]: 0.344% | Dose/g of tissue [10]: 5.78%

CC(C)CCCC(C)C1CCC2C3CC=C4CC(OC(=O)c5cc(I)cc(I)c5I)CCC4(C)C3CCC12C (centres undefined)
Dose/g of tissue [11]: 1.49% | Dose/g of tissue [12]: 2.726% | Dose/g of tissue [13]: 16.19% | Dose/g of tissue [14]: 0.57% | Dose/g of tissue [15]: 5.106% | Dose/g of tissue [16]: 9.032% | Dose/g of tissue [17]: 0.703% | Dose/g of tissue [18]: 5.455% | Dose/g of tissue [19]: 2.63% | Dose/g of tissue [20]: 0.568% | Dose/g of tissue [21]: 0.47% | Dose/g of tissue [22]: 1.68% | Dose/g of tissue [23]: 6.148% | Dose/g of tissue [24]: 5.46%
